The values that follow are results of earlier work, collected in patent US5935954A, “Compounds with improved multi-drug resistance activity” (Vertex Pharmaceuticals Incorporated, priority 1997, dated 1999).

Each structure is given as a SMILES string.

The subject of one data set is sensory ganglia. To be noted: cited from earlier work.
Data set [1] deals with rat pheochromocytoma cell line. To be noted: with NGF; cited from earlier work.
The subject of data set [2] is FK506 binding protein or FKBP12. To be noted: cited from earlier work.
The subject of a further data set is nerve cells. To be noted: cited from earlier work.
Data set [3] relates to multi-drug resistant ("MDR") cells. To be noted: cited from earlier work.

On to `CO[C@H]1C[C@@H]2CC[C@@H](C)[C@@](O)(O2)C(=O)C(=O)N2CCCC[C@H]2C(=O)O[C@H]([C@H](C)C[C@@H]2CC[C@@H](O)[C@H](OC)C2)CC(=O)[C@H](C)/C=C(\C)[C@@H](O)[C@@H](OC)C(=O)[C@H](C)C[C@H](C)/C=C/C=C/C=C/1C` [rapamycin], for which the neurotrophic effects entry with sensory ganglia is “those effects were blocked by rapamycin”. For the same compound, in data set [1], the neurite outgrowth entry is “did not inhibit the effects of FK-506 on neurite outgrowth, but rather was neurotrophic itself, displaying an additive effect with FK-506”. Further, the “binding to FKBP12” value in data set [2] was “have the ability to bind”.

Consider `C=CC[C@@H]1/C=C(\C)C[C@H](C)C[C@H](OC)[C@H]2O[C@@](O)(C(=O)C(=O)N3CCCC[C@H]3C(=O)O[C@H](/C(C)=C/[C@@H]3CC[C@@H](O)[C@H](OC)C3)[C@H](C)[C@@H](O)CC1=O)[C@H](C)C[C@@H]2OC` [FK506], for which the “stimulation of neurite outgrowth” value in the data set on nerve cells is listed as “effective in stimulating neurite outgrowth”. Also, the neurotrophic effects result in the data set with sensory ganglia is on record as “demonstrated similar neurotrophic effects”. In addition, the neurite outgrowth entry in data set [1] is reported as “acts synergistically”. For the same compound, in data set [3], the “sensitization of MDR cells / activity against multi-drug resistance” value was “effective against multi-drug resistance”. The “binding to FKBP12” value in data set [2] is reported as “have the ability to bind”.
